Reference: patent publication US8859463B2, “Method for controlling noxious organisms” (Sumitomo Chemical Company, Limited, priority 2009, dated 2014)

Experiments:
Type in all cases: in vivo
Aulacorthum solani [1] = experiment: Insecticidal effect (protective value), soybean pot test, Example 1; settings: clothianidin none, day 6 after release
Protocol: (§1) The evaluation of the insecticidal effect was performed by determining the life and death of the insects at the time of the investigation and calculating the protective value according to the following equation; Protective Value (%)=100×(1−T/C) wherein the symbols have the following meanings;
(§2) C: The number of insects at the time of observation in an untreated section: and
(§3) T: The number of insects at the time of observation in a treated section.
(§4) Thereafter, the test pot was placed in a greenhouse.

Aulacorthum solani [2] = experiment: Insecticidal effect (protective value), soybean pot test, Example 2; settings: thiamethoxam none; flumioxazin 50 g/ha; day 6 after release
Protocol: as §1, §2, §3, §4

soybean = experiment: Phytotoxicity to soybean, Example 6; settings: clothianidin none; flumioxazin 25 g/ha; day 11 after sowing
Text: A soil was packed in a 1/5000a Wagner pot. The above soybean seeds were sown in the Wagner pot at a rate of two seeds per pot, and the seeds of Ipomoea hederacea were sown in the pot at a rate of three seeds per pot.
On day 11 after sowing of the seeds of soybean and Ipomoea hederacea, the herbicidal effect and phytotoxicity were examined.

Ipomoea lacunosa = experiment: Herbicidal activity, corn pot test, Example 59; settings: pyraclostrobin none, flumioxazin 25 g/ha, twelve days after sowing
Protocol: In a glass container measuring 60 mm in inner diameter and 20 mm in height, 8 mg of a pyraclostrobin emulsifiable concentrate (emulsifiable concentrate containing 23.8% pyraclostrobin, manufactured by BASF under the trade name of Comet) and 25 corn seeds were placed. After capping a glass container, the pyraclostrobin emulsifiable concentrate was adhered to the corn seeds by shaking the glass container by hand. In the same manner, 22 mg of the pyraclostrobin emulsifiable concentrate was adhered to the corn seeds.
A plastic pot measuring 194 mm in inner diameter and 176 mm in height was filled with the soil. In this pot, 2 corn seeds were sown per 1 pot and 10 seeds of Ipomoea lacunosa were sown per 1 pot. On the day of sowing of the corn seeds, after sowing the corn seeds, a water diluted solution (24.5 mg of product/liter) of a flumioxazin granular wettable powder (granular wettable powder containing 51% flumioxazin, manufactured by Valent USA Corporation under the trade name of Valor SX), a water diluted solution (66.7 mg of product/liter) of a sulfentrazone granular wettable powder (granular wettable powder containing 75% sulfentrazone, manufactured by FMC Corporation under the trade name of Cover), a water diluted solution (15 mg/liter) of saflufenacil and a water diluted solution (100 mg/liter) of oxyfluorfen were uniformly sprayed over a surface of the soil in each amount described in Tables 22 to 25, using a sprayer. The water diluted solutions of saflufenacil and oxyfluorfen were prepared by dissolving each predetermined amount of saflufenacil and oxyfluorfen in acetone containing 2% (w/v) Tween 20 and diluting each solution with water so as to adjust the concentration of acetone to 10% by volume.
Twelve days after sowing the seeds of corn and Ipomoea lacunose, herbicidal activity was examined.

Senna obtusifolia = experiment: Herbicidal activity, soybean pot test, Example 58; settings: strobilurin seed treatment none, twelve days after sowing
Protocol: (§5) In a plastic cup measuring 65 mm in inner diameter and 75 mm in height, 4.8 mg of a pyraclostrobin emulsifiable concentrate (emulsifiable concentrate containing 23.8% pyraclostrobin, manufactured by BASF under the trade name of Comet) and 12 soybean seeds were placed. The pyraclostrobin emulsifiable concentrate was adhered to the soybean seeds by shaking this plastic cup by hand. In the same manner, 13.2 mg of the pyraclostrobin emulsifiable concentrate was adhered to the soybean seeds. In the same manner, 4.8 mg of an azoxystrobin suspension (emulsifiable concentrate containing 22.9% azoxystrobin, manufactured by Syngenta under the trade name of Amistar) was adhered to the soybean seeds. In the same manner, 20.4 mg of an azoxystrobin suspension was adhered to the soybean seeds.
(§6) A water diluted solution of a trifloxystrobin granular wettable powder (2.6%) was prepared by adding 52 mg of a trifloxystrobin granular wettable powder (granular wettable powder containing 50% trifloxystrobin, manufactured by Bayer Crop Science Inc. under the trade name of Flint) to 1 mL of desalted water. 51.6 mg of this water diluted solution and 12 soybean seeds were placed in the plastic cup. The water diluted solution of trifloxystrobin was adhered to the soybean seeds by shaking this plastic cup by hand. In the same manner, 199.2 mg of the water diluted solution of trifloxystrobin was adhered to the soybean seeds.
(§7) A plastic pot measuring 194 mm in inner diameter and 176 mm in height was filled with the soil. In this pot, 2 soybean seeds were sown per 1 pot and 10 seeds of Ipomoea hederacea var. integriuscula and Senna obtusifolia were sown per 1 pot. On the day of sowing of the soybean seeds, after sowing the soybean seed, a flumioxazin granule (granule containing 0.25% flumioxazin, manufactured by Valent USA Corporation under the trade name of BroadStar) was uniformly scattered over a surface of the soil in the amount described in Tables 19 to 21 by hand.
(§8) Twelve days after sowing the seeds of soybean, Ipomoea hederacea var. integriuscula and Senna obtusifolia, herbicidal activity was examined.

[3] = system: Ipomoea hederacea var. integriuscula; experiment: Herbicidal activity, soybean pot test, Example 58; settings: strobilurin seed treatment none, twelve days after sowing
Protocol: as §5, §6, §7, §8

For `C#CCN1C(=O)COc2cc(F)c(N3C(=O)C4=C(CCCC4)C3=O)cc21` [Flumioxazin, flumioxazin], the “Protective Value” (Aulacorthum solani [1]; flumioxazin 12.5 g/ha) was 0%, the “Protective Value” (Aulacorthum solani [1]; flumioxazin 25 g/ha) was 0% and the “Protective Value” (Aulacorthum solani [2]) was 0%. The “Phytotoxicity to Soybean” value (soybean) was “No harm”, the Herbicidal activity (Ipomoea lacunosa) was 40 and the “Herbicidal activity Senna obtusifolia” value (Senna obtusifolia; flumioxazin 25 g/ha) was 20. The “Herbicidal activity Senna obtusifolia” value (Senna obtusifolia; flumioxazin 100 g/ha) was 45, the “Herbicidal activity Ipomoea hederacea var. integriuscula” value ([3]; flumioxazin 25 g/ha) was 25 and the “Herbicidal activity Ipomoea hederacea var. integriuscula” value ([3]; flumioxazin 100 g/ha) was 85.
